Assay results from patent US12209141B2, “Dipeptide compounds and uses thereof” (HUAHAI US INC., priority 2018, dated 2025).

How the values were obtained:
[1] = Solubility tests at different pH values; assay type: physicochemical; details: aqueous buffer, thermodynamic from solid, 37° C.
Description: Weigh proper amount of the test chemical into buffered salt solutions with different pH value (4.0, 6.3, 7.4 and 9.0), the suspension was shaken at 37° C. for 1 hour. Precipitated and undissolved residues were removed by centrifugation. The content of the supernatant was determined by HPLC to analyze the solubility of the test chemical.

[2] = system: venous thrombosis in SD Rat; assay: Venous thrombosis in rat; assay type: in vivo; set-up: wet weight of thrombus: unit not given here; details: for antithrombotic effect (in words): single oral dose of 10 mg/kg
Description: Animals: SD Rat (Weight 180˜210 g, Sex Male)
Solution preparation: Weigh proper amount of the test chemical, dissolved in DMSO to give the stock solutions, serial dilution with water then provided the required concentration of administration dosage.
Experimental procedures: After 3-day adaptive breeding, male Sprague-Dawley rats were randomly divided into groups: model group, positive drug group and compound groups, with 4˜6 rats in each group.
The rats in the model group were given either intravenous injection or intragastric administration with equivalent solvent, those in the positive or compound group were given either intravenous injection or intragastric administration in a dose of 10 mg/kg.
The left renal vein was ligated with a silk thread to initiate thrombus formation. After 6 hours of stasis, another ligature was made at the distal side 2 cm apart from the first, thrombus formed inside the vessel was carefully removed, blotted on wet filter paper and weighed.

[3] = Plasma stability (incubation in rat whole blood, conversion to compound (V)); assay type: in vitro ADME; details: study period of 8 h
Description: An aliquot of 1 ml of rat whole blood was mixed with 50 ul of stock solution containing the test substance in DMSO (1 mg/ml) to obtain final concentration of 50 ug/ml. The mixture was incubated at 37° C. Samples were taken at time points of 0 min, 30 min, 1 h, 2 h, 4 h and 8 h, and then added to an organic solvent to terminate the reaction. After pretreatment each sample was analyzed by LC-MS/MS to determine the plasma concentrations of compound (III), compound (IV) and compound (V). […] The hydrolysis of the carbamate bond of each compound was accomplished within 30 minutes

Pharmacokinetics in dog = assay type: in vivo, Beagle Dog; details: single i.v. dose of 2 mg/kg
Description: (§1) Intragastric solution preparation: proper amount of the test chemical was weighed, and dissolved in DMSO to give the stock solution, which was then diluted serially with 0.5% CMC-Na solution to the required concentration of administration dosage.
(§2) IV solution preparation: proper amount of compound (V) was weighed, and dissolved in normal saline to give the stock solution, which was then diluted serially to the required concentration of administration dosage.
Experimental procedures: After 3-day adaptive breeding, male dogs were divided into groups randomly with 4 dogs in each group.
(§3) Dogs were orally given 5 mg/kg of the test compound via gavage for oral study or given 2 mg/kg of compound (V) via the femoral vein for intravenous (i.v.) study. Blood samples were collected at 15 min, 30 min, 1 h, 1.5 h, 2 h, 4 h, 6 h, 8 h, 10 h, and 24 h after dosing and were analyzed by LC-MS/MS after pretreatment.
(§4) WPS software was used to calculate the mean value, standard deviation, precision and accuracy of each sample.

Pharmacokinetics in rat = assay type: in vivo, SD Rat; details: single i.v. dose of 2 mg/kg
Description: Animals: SD Rat (Weight 200˜300 g, Sex Male)
as §1, §2
Experimental procedures: After 3-day adaptive breeding, male Sprague-Dawley rats were divided into groups randomly with 4 rats in each group.
as §3, with “Rats were” for “Dogs were”, “given 10” for “given 5”, “collected from the orbitat” for “collected”
as §4

[4] = single oral administration 10 mg/kg, Model 28.4 ± 7.5
[5] = single intravenous injection 10 mg/kg, compared with melagatran, Model 19.6 ± 3.7
[6] = single intravenous injection 10 mg/kg, compared with dabigatran, Model 22.7 ± 3.5
[7] = male, Sprague-Dawley, plasma, iv

Q: What does the source list for CCCCCCOC(=O)N=C(N)c1ccc(CNC(=O)[C@@H]2CCCN2C(=O)[C@@H](CC(C)C)NCC(=O)OCC)cc1.Cl [Compound 17, N-[(ethoxy)carbonyl]methyl-D-leucyl-L-prolyl-{4-[N′-(hexyloxycarbonyl)carbamimidoyl]benzyl} amide hydrochloride]?
A: solubility at 1 h ([1]; pH 4.0, buffered salt solution): 5840 µM; solubility at 1 h ([1]; pH 6.3, buffered salt solution): 3720 µM; solubility at 1 h ([1]; pH 7.4, buffered salt solution): 693 µM; solubility at 1 h ([1]; pH 9.0, buffered salt solution): 147 µM; antithrombotic effect (in words) ([2]; rat): significant antithrombotic effect; wet weight of thrombus [2, 4]: 11.0 ± 5.5

Q: Which results are given for CCOC(=O)CN[C@H](CC(C)C)C(=O)N1CCC[C@H]1C(=O)NCc1ccc(C(N)=NC(=O)CC(C)C(=O)OCC)cc1.Cl (stereo partly drawn) [Compound 12, N-[(ethoxy)carbonyl]methyl-D-leucyl-L-prolyl-{4-[N′-((2-(ethoxycarbonyl)propyl)carbonyl)carbamimidoyl]benzyl} amide hydrochloride]?
A: antithrombotic effect (in words) ([2]; rat): significant antithrombotic effect; wet weight of thrombus [2, 4]: 20.5 ± 4.7

Q: Which “antithrombotic effect (in words)” value ([2]; rat) does the source give for CCOC(=O)CN[C@H](CC(C)C)C(=O)N1CCC[C@H]1C(=O)NCc1ccc(C(N)=NC(=O)OCCOCCOCc2ccccc2)cc1.Cl [Compound 8, N-[(ethoxy)carbonyl]methyl-D-leucyl-L-prolyl-{4-[N′-((2-(2-(benzyloxy)ethoxy)ethoxy)carbonyl)carbamimidoyl]benzyl} amide hydrochloride] here?
A: significant antithrombotic effect

Q: And the “wet weight of thrombus” value [2, 4]?
A: 12.5 ± 3.1

Q: With N=C(N)c1ccc(CNC(=O)[C@@H]2CCN2C(=O)[C@H](NCC(=O)O)C2CCCCC2)cc1 [Melagatran, reference compound] as the compound, how does the “wet weight of thrombus” value [2, 5] read?
A: 7.8 ± 7.6

Q: Which solubility at 1 h ([1]; pH 4.0, buffered salt solution) does the source give for CCOC(=O)CN[C@H](CC(C)C)C(=O)N1CCC[C@H]1C(=O)NCc1ccc(C(N)=NC(=O)OCc2oc(=O)oc2C)cc1.Cl [Compound 1, N-[(ethoxy)carbonyl]methyl-D-leucyl-L-prolyl-{4-[N′-(((5-methyl-2-oxo-1,3-dioxol-4-yl)methyl)oxycarbonyl)carbamimidoyl]benzyl} amide hydrochloride] here?
A: 7720 µM

Q: And the solubility at 1 h ([1]; pH 6.3, buffered salt solution)?
A: 3990 µM

Q: What about the solubility at 1 h ([1]; pH 7.4, buffered salt solution) of the same compound?
A: 613 µM

Q: What about the solubility at 1 h ([1]; pH 9.0, buffered salt solution) of the same compound?
A: 196 µM

Q: What about the “antithrombotic effect (in words)” value ([2]; rat) of the same compound?
A: significant antithrombotic effect

Q: What about the “wet weight of thrombus” value [2, 4] of the same compound?
A: 10.8 ± 5.1

Q: With [H]/N=C(/N)c1ccc(NCc2nc3cc(C(=O)N(CCC(=O)O)c4ccccn4)ccc3n2C)cc1 [Dabigatran, reference compound] as the compound, how does the “wet weight of thrombus” value [2, 6] read?
A: 15.7 ± 4.0

Q: With CCOC(=O)CN[C@H](CC(C)C)C(=O)N1CCC[C@H]1C(=O)NCc1ccc(C(N)=NC(=O)OCCOC)cc1.Cl [Compound 2, N-[(ethoxy)carbonyl]methyl-D-leucyl-L-prolyl-{4-[N′-((2-(methoxy)ethoxy)carbonyl)carbamimidoyl]benzyl}amide hydrochloride] as the compound, how does the “antithrombotic effect (in words)” value ([2]; rat) read?
A: significant antithrombotic effect

Q: And the “wet weight of thrombus” value [2, 4]?
A: 16.7 ± 8.0

Q: For CC(C)C[C@@H](NCC(=O)O)C(=O)N1CCC[C@H]1C(=O)NCc1ccc(C(=N)N)cc1 [Compound of Formula (V)], which “stability in plasma stability experiment (in words)” value [3] is on record?
A: substantially stable, with no significant degradation

Q: And the AUC(0-inf) (Pharmacokinetics in dog; male, beagle, plasma, iv)?
A: 4340 ng·h/mL

Q: What about the Cmax (Pharmacokinetics in dog; male, beagle, plasma, iv) of the same compound?
A: 4040 ng/mL

Q: And the half-life (Pharmacokinetics in dog; male, beagle, plasma, iv)?
A: 11.8 h

Q: What about the CLz/F (Pharmacokinetics in dog) of the same compound?
A: 7.9 mL/min/kg

Q: And the “anti-thrombotic activity (in words)” value ([2]; rat, single injection at 10 mg/kg)?
A: superior anti-thrombotic activity compared to dabigatran and melagatran

Q: And the “wet weight of thrombus” value [2, 6]?
A: 13.3 ± 1.5

Q: And the “wet weight of thrombus” value [2, 5]?
A: 6.8 ± 5.0

Q: And the AUC(0-inf) (Pharmacokinetics in rat; [7])?
A: 2960 ng·h/mL

Q: What about the Cmax (Pharmacokinetics in rat; [7]) of the same compound?
A: 4720 ng/mL

Q: What about the half-life (Pharmacokinetics in rat; [7]) of the same compound?
A: 5.02 h

Q: And the CLz/F (Pharmacokinetics in rat)?
A: 11.6 mL/min/kg

Q: Which solubility at 1 h ([1]; pH 4.0, buffered salt solution) does the source give for CCOCCCOC(=O)N=C(N)c1ccc(CNC(=O)[C@@H]2CCCN2C(=O)[C@@H](CC(C)C)NCC(=O)OCC)cc1.Cl [Compound 10, N-[(ethoxy)carbonyl]methyl-D-leucyl-L-prolyl-{4-[N′-((3-(ethoxy)propoxy)carbonyl)carbamimidoyl]benzyl} amide hydrochloride] here?
A: 6520 µM

Q: What about the solubility at 1 h ([1]; pH 6.3, buffered salt solution) of the same compound?
A: 3350 µM

Q: And the solubility at 1 h ([1]; pH 7.4, buffered salt solution)?
A: 495 µM

Q: And the solubility at 1 h ([1]; pH 9.0, buffered salt solution)?
A: 119 µM

Q: What about the “antithrombotic effect (in words)” value ([2]; rat) of the same compound?
A: significant antithrombotic effect

Q: And the “wet weight of thrombus” value [2, 4]?
A: 14.6 ± 3.6

Q: Which “antithrombotic effect (in words)” value ([2]; rat) does the source give for CCCCCCOC(=O)N=C(N)c1ccc(CNC(=O)[C@@H]2CCCN2C(=O)[C@@H](CC(C)C)NCC(=O)OC(C)(C)C)cc1.Cl [Compound 19, N-[(tert-butyloxy)carbonyl]methyl-D-leucyl-L-prolyl-{4-[N′-(hexyloxycarbonyl)carbamimidoyl]benzyl} amide hydrochloride] here?
A: significant antithrombotic effect

Q: And the “wet weight of thrombus” value [2, 4]?
A: 13.9 ± 6.0

Q: With CCOCCOCCOC(=O)N=C(N)c1ccc(CNC(=O)[C@@H]2CCCN2C(=O)[C@@H](CC(C)C)NCC(=O)OCC)cc1.Cl [Compound 6, N-[(ethoxy)carbonyl]methyl-D-leucyl-L-prolyl-{4-[N′-((2-(2-(ethoxy)ethoxy)ethoxy)carbonyl)carbamimidoyl]benzyl} amide hydrochloride] as the compound, how does the “antithrombotic effect (in words)” value ([2]; rat) read?
A: significant antithrombotic effect

Q: What about the “wet weight of thrombus” value [2, 4] of the same compound?
A: 19.7 ± 6.4
